Assay results from patent US20220041588A1, “SUBSTITUTED IMIDAZO[1,2-A]PYRIDINE AND [1,2,4]TRIAZOLO[1,5-A]PYRIDINE COMPOUNDS AS RET KINASE INHIBITORS” (FOCHON PHARMACEUTICALS, LTD., priority 2018, published 2022).

What was measured:
TT (RET C634W) cells = test: Cell proliferation assay (MTS), TT cells; format: cell-based; conditions: 72 h incubation, MTS readout
Method: (§1) MTS testing kit was purchased from Promega. The RPMI-1640, F12, F12K, Fetal bovine serum and Penicillin-Streptomycin were purchased from BI. Glutamine and Dimethyl sulfoxide (DMSO) were purchased from Sigma. TT cells were cultured in F12K supplemented with 10% FBS and LC-2/ad cells were cultured in HamF12: RPMI1640 (1:1) supplemented with 10% FBS and 2 mM Glutamine.
(§2) To investigate whether a compound is able to inhibit the activity of RET fusion and/or mutation in cells, a mechanism-based assay using TT (RET C634W) and LC-2/ad (CCDCl6-RET) cell lines was developed. In this assay, the inhibition of RET fusion and/or mutation was reflected by the inhibition of cell proliferation of TT and LC-2/ad cells. Cells were plated into 96-well plates at the optimized cell density (TT: 5000 cells/well; LC-2/ad: 5000 cells/well). Plates were incubated at 37° C., with 5% CO2 for 24 h. Compounds were serially diluted and added to the plates with the final concentrations as 10000, 3333.3, 1111.1, […], 123.5, 41.2, 13.7, 4.6 and 1.5 nM. Plates were incubated at 37° C., with 5% CO2 for 72 h. An aliquot of 20 μL MTS/100 μL medium mixture solution were added to each well and the plates were incubated for exactly 2 h. The reaction was stopped by adding 25 μL 10% SDS to each well. The absorbance was measured by a microplate reader at 490 nm and 650 nm (reference wavelength). IC50 was calculated using GraphPad Prism 5.0.

[1] = tested on: LC-2/ad (CCDCl6-RET) cells; test: Cell proliferation assay (MTS), LC-2/ad cells; format: cell-based; conditions: LC-2/ad cells (CCDCl6-RET), 72 h incubation, MTS readout
Method: as §1, §2

**Q.** What does the source list for COc1ccc(CN2CCN(c3ccc(-c4cc(-c5cnn(CCOC(C)C)c5)cc5ncc(C#N)n45)cn3)CC2)cn1 [Example 27, 7-(1-(2-isopropoxyethyl)-1H-pyrazol-4-yl)-5-(6-(4-((6-methoxypyridin-3-yl)methyl)piperazin-1-yl)pyridin-3-yl) imidazo[1,2-a]pyridine-3-carbonitrile]?
**A.** IC50 (TT (RET C634W) cells; Homo sapiens, TT, 72 h): 65 nM; IC50 ([1]; Homo sapiens, LC-2-ad, 72 h): 39 nM

**Q.** With Cn1cc(-c2cc(-c3ccc(N4CCN(Cc5ccccc5)CC4)nc3)n3c(C#N)cnc3c2)cn1 [Example 33, 5-(6-(4-benzylpiperazin-1-yl)pyridin-3-yl)-7-(1-methyl-1H-pyrazol-4-yl) imidazo[1,2-a]pyridine-3-carbonitrile] as the compound, how does the IC50 (TT (RET C634W) cells; Homo sapiens, TT, 72 h) read?
**A.** 34 nM

**Q.** And the IC50 ([1]; Homo sapiens, LC-2-ad, 72 h)?
**A.** 17 nM

**Q.** For Cn1cc(-c2cc(-c3ccc(N4CCN(Cc5ccn(C)n5)CC4)nc3)n3c(C#N)cnc3c2)cn1 [Example 37, 5-(6-(4-((1-methyl-1H-pyrazol-3-yl)methyl)piperazin-1-yl)pyridin-3-yl)-7-(1-methyl-1H-pyrazol-4-yl)imidazo [1,2-a]pyridine-3-carbonitrile], which IC50 (TT (RET C634W) cells; Homo sapiens, TT, 72 h) is on record?
**A.** 45 nM

**Q.** What about the IC50 ([1]; Homo sapiens, LC-2-ad, 72 h) of the same compound?
**A.** 41 nM

**Q.** Which IC50 (TT (RET C634W) cells; Homo sapiens, TT, 72 h) does the source give for Cn1cc(-c2cc(-c3ccc(N4CCN(CCS(=O)(=O)c5ccccc5)CC4)nc3)n3c(C#N)cnc3c2)cn1 [Example 38, 7-(1-methyl-1H-pyrazol-4-yl)-5-(6-(4-(2-(phenylsulfonyl)ethyl)piperazin-1-yl)pyridin-3-yl)imidazo[1,2-a]pyr-idine-3-carbonitrile] here?
**A.** 38 nM

**Q.** What about the IC50 ([1]; Homo sapiens, LC-2-ad, 72 h) of the same compound?
**A.** 34 nM

**Q.** Cn1cc(-c2cc(-c3ccc(N4CCN(C(=O)Cc5ccccn5)CC4)cc3)n3c(C#N)cnc3c2)cn1 [Example 45, 7-(1-methyl-1H-pyrazol-4-yl)-5-(4-(4-(2-(pyridin-2-yl)acetyl)piperazin-1-yl)phenyl)imidazo[1,2-a]pyridine-3-carbonitrile] was tested. Which IC50 (TT (RET C634W) cells; Homo sapiens, TT, 72 h) did it give?
**A.** 66 nM

**Q.** What about the IC50 ([1]; Homo sapiens, LC-2-ad, 72 h) of the same compound?
**A.** 50 nM

**Q.** Cn1cc(-c2cc(-c3ccc(N4CCN(C(=O)Cc5ccccn5)CC4)nc3)n3c(C#N)cnc3c2)cn1 [Example 46, 7-(1-methyl-1H-pyrazol-4-yl)-5-(6-(4-(2-(pyridin-2-yl)acetyl)piperazin-1-yl)pyridin-3-yl)imidazo[1,2-a]pyri-dine-3-carbonitrile] was tested. Which IC50 (TT (RET C634W) cells; Homo sapiens, TT, 72 h) did it give?
**A.** 37 nM

**Q.** And the IC50 ([1]; Homo sapiens, LC-2-ad, 72 h)?
**A.** 36 nM

**Q.** How did the IC50 (TT (RET C634W) cells; Homo sapiens, TT, 72 h) turn out when CC(C)CC(=O)N1CCN(c2ccc(-c3cc(-c4cnn(C)c4)cc4ncc(C#N)n34)cn2)CC1 [Example 48, 7-(1-methyl-1H-pyrazol-4-yl)-5-(6-(4-(3-methylbutanoyl)piperazin-1-yl)pyridin-3-yl)imidazo[1,2-a]pyridine-3-carbonitrile] was run?
**A.** 77 nM

**Q.** And the IC50 ([1]; Homo sapiens, LC-2-ad, 72 h)?
**A.** 50 nM

**Q.** What does the source list for COC(CNC(=O)N1CCN(c2ccc(-c3cc(-c4cnn(C)c4)cc4ncc(C#N)n34)cn2)CC1)C(C)C (centres unmarked) [Example 50, 4-(5-(3-cyano-7-(1-methyl-1H-pyrazol-4-yl)imidazo[1,2-a]pyridin-5-yl)pyridin-2-yl)-N-(2-methoxy-3-methyl-butyl)piperazine-1-carboxamide]?
**A.** IC50 (TT (RET C634W) cells; Homo sapiens, TT, 72 h): 14 nM; IC50 ([1]; Homo sapiens, LC-2-ad, 72 h): 30 nM

**Q.** With CC(C)OCCN1CCN(c2ccc(-c3cc(-c4cnn(C)c4)cc4ncc(C#N)n34)cn2)CC1 [Example 51, 5-(6-(4-(2-isopropoxyethyl)piperazin-1-yl)pyridin-3-yl)-7-(1-methyl-1H-pyrazol-4-yl)imidazo[1,2-a]pyridine-3-carbonitrile] as the compound, how does the IC50 (TT (RET C634W) cells; Homo sapiens, TT, 72 h) read?
**A.** 44 nM

**Q.** What about the IC50 ([1]; Homo sapiens, LC-2-ad, 72 h) of the same compound?
**A.** 40 nM

**Q.** How did the IC50 (TT (RET C634W) cells; Homo sapiens, TT, 72 h) turn out when Cn1cc(-c2cc(-c3ccc(N4CCN(Cc5ccccn5)CC4)nc3)n3c(C#N)cnc3c2)cn1 [Example 52, 7-(1-methyl-1H-pyrazol-4-yl)-5-(6-(4-(pyridin-2-ylmethyl)piperazin-1-yl)pyridin-3-yl)imidazo[1,2-a]pyridine-3-carbonitrile] was run?
**A.** 24 nM

**Q.** What about the IC50 ([1]; Homo sapiens, LC-2-ad, 72 h) of the same compound?
**A.** 42 nM

**Q.** Which IC50 (TT (RET C634W) cells) does the source give for COc1ccc(CN2C3CC2CN(c2ccc(-c4cc(OCC5(O)CC5)cc5ncc(C#N)n45)cn2)C3)cn1 [Example 57A, 7-((1-Hydroxycyclopropyl)methoxy)-5-(6-(6-((6-methoxypyridin-3-yl)methyl)-3,6-diazabicyclo[3.1.1]heptan-3-yl)pyridin-3-yl)imidazo[1,2-a]pyridine-3-carbonitrile] here?
**A.** 33 nM

**Q.** What about the IC50 ([1]; Homo sapiens, LC-2-ad, 72 h) of the same compound?
**A.** 81 nM

**Q.** How did the IC50 (TT (RET C634W) cells) turn out when COc1ccc(CN2C3CC2CN(c2ccc(-c4cc(OCC5(O)CC5)cc5ncc(C#N)n45)cn2)C3)cn1 [Example 57B, 7-((1-Hydroxycyclopropyl)methoxy)-5-(6-(6-((6-methoxypyridin-3-yl)methyl)-3,6-diazabicyclo[3.1.1]heptan-3-yl)pyridin-3-yl)imidazo[1,2-a]pyridine-3-carbonitrile] was run?
**A.** 127 nM

**Q.** And the IC50 [1]?
**A.** 115 nM

**Q.** Which IC50 (TT (RET C634W) cells; Homo sapiens, TT, 72 h) does the source give for COc1ccc(CN2C3CC2CN(c2ccc(-c4cc(OCCC(O)C(F)(F)F)cc5ncc(C#N)n45)cn2)C3)cn1 (centres unmarked) [Example 59, 5-(6-(6-((6-Methoxypyridin-3-yl)methyl)-3,6-diazabicyclo[3.1.1]heptan-3-yl)pyridin-3-yl)-7-(4,4,4-trifluoro-3-hydroxybutoxy)imidazo[1,2-a]pyridine-3-carbonitrile] here?
**A.** 126 nM

**Q.** And the IC50 ([1]; Homo sapiens, LC-2-ad, 72 h)?
**A.** 64 nM

**Q.** What does the source list for COc1ccc(OC2CCN(c3ccc(-c4cc(OCC(C)(C)O)cc5ncc(C#N)n45)cn3)CC2)cn1 [Example 60, 7-(2-Hydroxy-2-methylpropoxy)-5-(6-(4-((6-methoxypyridin-3-yl)oxy)piperidin-1-yl)pyridin-3-yl)imidazo[1,2-a]pyridine-3-carbonitrile]?
**A.** IC50 (TT (RET C634W) cells; Homo sapiens, TT, 72 h): 3 nM; IC50 ([1]; Homo sapiens, LC-2-ad, 72 h): 9 nM

**Q.** With CC(C)(O)COc1cc(-c2ccc(N3CCC(Oc4ccccn4)CC3)nc2)n2c(C#N)cnc2c1 [Example 64, 7-(2-hydroxy-2-methylpropoxy)-5-(6-(4-(pyridin-2-yloxy)piperidin-1-yl)pyridin-3-yl)imidazo[1,2-a]pyridine-3-carbonitrile] as the compound, how does the IC50 (TT (RET C634W) cells; Homo sapiens, TT, 72 h) read?
**A.** 87 nM

**Q.** And the IC50 ([1]; Homo sapiens, LC-2-ad, 72 h)?
**A.** 28 nM

**Q.** Which results are given for COc1ccc(OC2CCN(c3ccc(-c4cc(OCC(C)(C)O)cc5ncc(C#N)n45)cn3)CC2)nn1 [Example 65, 7-(2-hydroxy-2-methylpropoxy)-5-(6-(4-((6-methoxypyridazin-3-yl)oxy)piperidin-1-yl)pyridin-3-yl)imidazo[1,2-a]pyridine-3-carbonitrile]?
**A.** IC50 (TT (RET C634W) cells; Homo sapiens, TT, 72 h): 38 nM; IC50 ([1]; Homo sapiens, LC-2-ad, 72 h): 34 nM

**Q.** For CC(C)(O)COc1cc(-c2ccc(N3CCC(O)(Cc4ccccc4)CC3)nc2)n2c(C#N)cnc2c1 [Example 66, 5-(6-(4-benzyl-4-hydroxypiperidin-1-yl)pyridin-3-yl)-7-(2-hydroxy-2-methylpro-poxy)imidazo[1,2-a]pyridine-3-carbonitrile], which IC50 (TT (RET C634W) cells; Homo sapiens, TT, 72 h) is on record?
**A.** 117 nM

**Q.** What about the IC50 ([1]; Homo sapiens, LC-2-ad, 72 h) of the same compound?
**A.** 55 nM

**Q.** For COc1ccc(OC2CCN(c3ccc(-c4cc(OCC5(O)CC5)cc5ncc(C#N)n45)cn3)CC2)cn1 [Example 68, 7-((1-hydroxycyclopropyl)methoxy)-5-(6-(4-((6-methoxypyridin-3-yl)oxy)piperidin-1-yl)pyridin-3-yl)imidazo[1,2-a]pyridine-3-carbonitrile], which IC50 (TT (RET C634W) cells; Homo sapiens, TT, 72 h) is on record?
**A.** 5 nM

**Q.** And the IC50 ([1]; Homo sapiens, LC-2-ad, 72 h)?
**A.** 10 nM

**Q.** What does the source list for COc1ccc(OC2CCN(c3ccc(-c4cc(OCC(O)C(F)(F)F)cc5ncc(C#N)n45)cn3)CC2)cn1 (centres unmarked) [Example 69, 5-(6-(4-((6-methoxypyridin-3-yl)oxy)pi-peridin-1-yl)pyridin-3-yl)-7-(3,3,3-trifluoro-2-hydroxypropoxy)imidazo[1,2-a]pyri-dine-3-carbonitrile]?
**A.** IC50 (TT (RET C634W) cells; Homo sapiens, TT, 72 h): 57 nM; IC50 ([1]; Homo sapiens, LC-2-ad, 72 h): 49 nM
